Data taken from ChEMBL document CHEMBL3600289, “A double bond-conjugated dimethylnitrobenzene-type photolabile nitric oxide donor with improved two-photon cross section” (Bioorg Med Chem Lett, 2015).
Activity calls are given as the source filed them. No cut-off for these calls is given here.

Tests used:
[1] = Induction of nitric oxide release in water/DMSO mixture irradiated with 100W Hg lamp at 450 to 480 nm by […] complex-based ESR spin trapping method; format: physicochemical; conditions: buffer, 0.48 µM
[2] = system: HCT-116; assay: Induction of nitric oxide release in human HCT116 cells at 25 uM preincubated for 1 hr followed by irradiation with 950 nm pulse laser for 1 sec by confocal microscopic analysis; format: functional, cell-based
[3] = Induction of nitric oxide release in water/DMSO mixture irradiated with 100W Hg lamp at 330 to 380 nm at 1 mM by […] complex-based ESR spin trapping method; format: physicochemical; conditions: buffer, 0.38 µM
[4] = system: HCT-116; assay: Induction of nitric oxide release in human HCT116 cells at 25 uM incubated for 1 hr by confocal microscopic analysis in absence of irradiation; format: functional, cell-based
[5] = Induction of nitric oxide release in water/DMSO mixture irradiated with 100W Hg lamp at 450 to 480 nm at 1 mM by […] complex-based ESR spin trapping method; format: physicochemical; conditions: buffer, 0.48 µM

Question: With `Cc1cc(/C=C/c2ccc(C(=O)Nc3ccc(-c4c5ccc(=O)cc-5oc5cc(O)ccc45)c(C(=O)O)c3)cc2)cc(C)c1[N+](=O)[O-]` as the compound, how does the Activity [1] read?
Answer: Not Active

Question: With `Cc1cc(/C=C/c2ccc(/C=C/c3ccc(-c4c5ccc(=O)cc-5oc5cc(O)ccc45)c(C(=O)O)c3)cc2)cc(C)c1[N+](=O)[O-]` as the compound, how does the Activity [2] read?
Answer: Active

Question: What about the Activity [3] of the same compound?
Answer: Active

Question: And the Activity [4]?
Answer: inactive

Question: What about the Activity [5] of the same compound?
Answer: Active
